Assay [1] concerns the target T1, PI3Kδ (p110δ/p85α) (Homo sapiens (Human), UniProt O00329). Nature of the assay: PI3Kδ Scintillation Proximity Assay (Assay A3). Format: biochemical. To be noted: column b, Assay A3 (SPA), 20 μM ATP. The procedure, abridged:
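Radiometric SPA: 33P-labelled […] bound to WGA beads after EDTA/ATP quench, counted by scintillation, fitted against log inhibitor for IC50. Reaction: 4 nM PI3Kδ (p110δ/p85α), 20 μM ATP, 20 μM PIP2, pH 6.7 MOPS buffer with MgCl2, DTT, CHAPS, 0.5% DMSO, room temperature, 210 min.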
(In general: Scintillation proximity formats need no separation of bound from free tracer.)

For assay [2], the system named is Pfeiffer cell line (diffuse large B cell lymphoma). Nature of the assay: Pfeiffer Cell Proliferation Assay. The conditions noted are these: 3-4 days, [3H]-thymidine incorporation. Format: cell-based. The procedure:
Pfeiffer cell line (diffuse large B cell lymphoma) was purchased from ATCC (Manassas, Va.) and maintained in the culture medium recommended (RPMI and 10% FBS). To measure the anti-proliferation activity of the PI3Kδ submittals, the Pfeiffer cells were plated with the culture medium (2×10^3 cells/well/per 200 μl) into 96-well ultra-low binding plates (Corning, Corning, N.Y.), in the presence or absence of a concentration range of test compounds. After 3-4 days, [^3H]-thymidine (1 μCi/well) (PerkinElmer, Boston, Mass.) in PBS was then added to the cell culture for an additional 12 hrs before the incorporated radioactivity was separated by filtration with water through GF/B filters (Packard Bioscience, Meriden, Conn.) and measured by liquid scintillation counting with a TopCount (Packard Bioscience). See Table 3 for data related to compounds of the invention.
A general note: Dividing cells build labelled thymidine or BrdU into new DNA.

For the next assay, the target named is PI3Kγ (Homo sapiens (Human), UniProt P48736). Nature of the assay: PI3K Enzyme Assay A2 ([γ-33P]ATP filter plate), PI3Kγ. It counts as biochemical. The conditions noted are these: Assay A2, 1000 μM ATP. The procedure:
Materials: Lipid kinase substrate, phosphoinositol-4,5-bisphosphate (PIP2), was purchased from Echelon Biosciences (Salt Lake City, Utah). PI3K isoforms α, β, δ and γ were purchased from Millipore (Bedford, Mass.). ATP, MgCh, DTT, EDTA, MOPS and CHAPS were purchased from Sigma-Aldrich (St. Louis, Mo.).
(§1) The kinase reaction was conducted in clear-bottom 96-well plate from Thermo Fisher Scientific in a final volume of 24 μL. Inhibitors were first diluted serially in DMSO and added to the plate wells before the addition of other reaction components. The final concentration of DMSO in the assay was 0.5%. The PI3K assays were carried out at room temperature in 20 mM MOPS, pH 6.7, 10 mM MgCl2, 5 mM DTT and CHAPS 0.03%. The reaction mixture was prepared containing 50 μM PIP2, kinase and varying concentration of inhibitors. Reactions were initiated by the addition of ATP containing 2.2 μCi [γ-^33P]ATP to a final concentration of 1000 μM. The final concentration of PI3K isoforms α, β, δ and γ in the assay were 1.3, 9.4, 2.9 and 10.8 nM respectively. Reactions were incubated for 180 min and terminated by the addition of 100 μL of 1 M potassium phosphate pH 8.0, 30 mM EDTA quench buffer. A 100 μL aliquot of the reaction solution was then transferred to 96-well Millipore MultiScreen IP 0.45 μm PVDF filter plate (The filter plate was prewetted with 200 μL 100% ethanol, distilled water, and 1 M potassium phosphate pH 8.0, respectively). The filter plate was aspirated on a Millipore Manifold under vacuum and washed with 18×200 μL wash buffer containing 1 M potassium phosphate pH 8.0 and 1 mM ATP. After drying by aspiration and blotting, the plate was air dried in an incubator at 37° C. overnight. Packard TopCount adapter (Millipore) was then attached to the plate followed with addition of 120 μL Microscint 20 scintillation cocktail (Perkin Elmer) in each well. After the plate sealing, the radioactivity of the product was determined by scintillation counting on Topcount (Perkin-Elmer). IC50 determination was performed by fitting the curve of percent control activity versus the log of the inhibitor concentration using the GraphPad Prism 3.0 software. […] See Table 1 for data related to compounds of the invention.

The next assay has as its target PI3Kβ (Homo sapiens (Human), UniProt P42338). Nature of the assay: PI3K Enzyme Assay A2 ([γ-33P]ATP filter plate), PI3Kβ. To be noted: Assay A2, 1000 μM ATP. Format: biochemical. The procedure: as §1, with “Materials: Lipid kinase substrate, phosphoinositol-4,5-bisphosphate (PIP2), was purchased from Echelon Biosciences (Salt Lake City, Utah). PI3K isoforms α, β, δ and γ were purchased from Millipore (Bedford, Mass.). ATP, MgCh, DTT, EDTA, MOPS and CHAPS were purchased from Sigma-Aldrich (St. Louis, Mo.). The kinase” for “The kinase”, “1000 μM. […] Reactions were” for “1000 μM. The final concentration of PI3K isoforms α, β, δ and γ in the assay were 1.3, 9.4, 2.9 and 10.8 nM respectively. Reactions were”

Assay [3] concerns purified B cells from human PBMC. Briefly: B Cell Proliferation Assay. It counts as cell-based. The conditions noted are these: anti-human IgM stimulated, three days, [3H]-thymidine incorporation. The procedure: To acquire B cells, human PBMC were isolated from the peripheral blood of normal, drug free donors by standard density gradient centrifugation on Ficoll-Hypague (GE Healthcare, Piscataway, N.J.) and incubated with anti-CD19 microbeads (Miltenyi Biotech, Auburn, Calif.). The B cells were then purified by positive immunosorting using an autoMacs (Miltenyi Biotech) according to the manufacturer's instruction.
The purified B cells (2×10^5/well/200 μL) were cultured in 96-well ultra-low binding plates (Corning, Corning, N.Y.) in RPMI1640, 10% FBS and goat F(ab′)2 anti-human IgM (10 μg/ml) (Invitrogen, Carlsbad, Calif.), in the presence of different amount of test compounds, for three days. [^3H]-thymidine (1 μCi/well) (PerkinElmer, Boston, Mass.) in PBS was then added to the B cell cultures for an additional 12 hrs before the incorporated radioactivity was separated by filtration with water through GF/B filters (Packard Bioscience, Meriden, Conn.) and measured by liquid scintillation counting with a TopCount (Packard Bioscience). Compounds having and IC^50 value of 10 μM or less are considered active. See Table 2 for data related to compounds of the invention.

Assay [4] concerns the target T1, PI3Kδ (p110δ/p85α). Briefly: AlphaScreen Assay for PI3Kδ (Assay A1). It counts as biochemical. To be noted: column a, 20 μM ATP. From the text: PI3-Kinase luminescent assay kit including lipid kinase substrate, D-myo-phosphatidylinositol 4,5-bisphosphate (PtdIns(4,5)P2)D (+)-sn-1,2-di-O-octanoylglyceryl, 3-O-phospho linked (PIP2), biotinylated I(1,3,4,5)P4, PI(3,4,5)P3 Detector Protein, was purchased from Echelon Biosciences (Salt Lake City, Utah). AlphaScreen™ GST Detection Kit including donor and acceptor beads was purchased from PerkinElmer Life Sciences (Waltham, Mass.). PI3Kδ (p110δ/p85α) was purchased from Millipore (Bedford, Mass.). ATP, MgCb, DTT, EDTA, HEPES and CHAPS were purchased from Sigma-Aldrich (St. Louis, Mo.).
AlphaScreen™ Assay for PI3Kδ
The kinase reaction was conducted in 384-well REMP plate from Thermo Fisher Scientific in a final volume of 40 μL. Inhibitors were first diluted serially in DMSO and added to the plate wells before the addition of other reaction components. The final concentration of DMSO in the assay was 2%. The PI3K assays were carried out at room temperature in 50 mM HEPES, pH 7.4, 5 mM MgCl2, 50 mM NaCl, 5 mM DTT and CHAPS 0.04%. Reactions were initiated by the addition of ATP, the final reaction mixture consisted of 20 μM PIP2, 20 μM ATP, 1.2 nM PI3Kδ were incubated for 20 min. 10 μL of reaction mixture was then transferred to 5 μL 50 nM biotinylated I(1,3,4,5)P4 in quench buffer: 50 mM HEPES pH 7.4, 150 mM NaCl, 10 mM EDTA, 5 mM DTT, 0.1% Tween-20, followed with the addition of 10 μL AlphaScreen™ donor and acceptor beads suspended in quench buffer containing 25 nM PI(3,4,5)P3 detector protein. The final concentration of both donor and acceptor beads is […]. After plate sealing, the plate was incubated in a dark location at room temperature for 2 hours. The activity of the product was determined on Fusion-alpha microplate reader (Perkin-Elmer). IC50 determination was performed by fitting the curve of percent control activity versus the log of the inhibitor concentration using the GraphPad Prism 3.0 software.
A general note: Bead proximity is the source of the signal in Alpha formats.

SMILES strings stand for the structures. Counter-ions that a name gives are not always drawn.

T1 sequence (O00329 whole entry, species assumed): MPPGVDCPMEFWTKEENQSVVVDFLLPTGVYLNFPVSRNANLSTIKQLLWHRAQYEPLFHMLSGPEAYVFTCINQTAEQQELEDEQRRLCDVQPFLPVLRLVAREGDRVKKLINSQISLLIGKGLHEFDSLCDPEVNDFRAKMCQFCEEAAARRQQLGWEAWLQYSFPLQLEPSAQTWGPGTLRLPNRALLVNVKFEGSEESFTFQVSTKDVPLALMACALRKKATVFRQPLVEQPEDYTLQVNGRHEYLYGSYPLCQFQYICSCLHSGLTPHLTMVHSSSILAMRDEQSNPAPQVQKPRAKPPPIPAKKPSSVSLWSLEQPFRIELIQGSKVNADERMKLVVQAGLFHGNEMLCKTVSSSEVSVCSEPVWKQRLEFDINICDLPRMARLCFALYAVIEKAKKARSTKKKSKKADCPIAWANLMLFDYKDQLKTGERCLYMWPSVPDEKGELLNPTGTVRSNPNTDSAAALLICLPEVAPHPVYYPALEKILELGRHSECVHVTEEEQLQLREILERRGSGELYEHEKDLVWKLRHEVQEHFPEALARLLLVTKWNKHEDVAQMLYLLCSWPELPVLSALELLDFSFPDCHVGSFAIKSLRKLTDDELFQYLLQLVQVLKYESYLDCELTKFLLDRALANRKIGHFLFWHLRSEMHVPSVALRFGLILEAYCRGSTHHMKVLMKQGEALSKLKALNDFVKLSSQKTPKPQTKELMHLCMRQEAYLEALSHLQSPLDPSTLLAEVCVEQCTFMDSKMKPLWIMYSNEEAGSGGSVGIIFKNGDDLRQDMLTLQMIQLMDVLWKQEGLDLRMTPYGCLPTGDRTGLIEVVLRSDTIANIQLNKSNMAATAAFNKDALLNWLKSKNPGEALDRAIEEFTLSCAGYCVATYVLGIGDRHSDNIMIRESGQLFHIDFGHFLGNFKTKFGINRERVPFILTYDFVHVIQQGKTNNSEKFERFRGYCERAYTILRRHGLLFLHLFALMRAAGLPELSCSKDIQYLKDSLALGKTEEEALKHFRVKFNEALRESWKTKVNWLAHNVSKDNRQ
T1 sequence (P27986 whole entry partner, species assumed): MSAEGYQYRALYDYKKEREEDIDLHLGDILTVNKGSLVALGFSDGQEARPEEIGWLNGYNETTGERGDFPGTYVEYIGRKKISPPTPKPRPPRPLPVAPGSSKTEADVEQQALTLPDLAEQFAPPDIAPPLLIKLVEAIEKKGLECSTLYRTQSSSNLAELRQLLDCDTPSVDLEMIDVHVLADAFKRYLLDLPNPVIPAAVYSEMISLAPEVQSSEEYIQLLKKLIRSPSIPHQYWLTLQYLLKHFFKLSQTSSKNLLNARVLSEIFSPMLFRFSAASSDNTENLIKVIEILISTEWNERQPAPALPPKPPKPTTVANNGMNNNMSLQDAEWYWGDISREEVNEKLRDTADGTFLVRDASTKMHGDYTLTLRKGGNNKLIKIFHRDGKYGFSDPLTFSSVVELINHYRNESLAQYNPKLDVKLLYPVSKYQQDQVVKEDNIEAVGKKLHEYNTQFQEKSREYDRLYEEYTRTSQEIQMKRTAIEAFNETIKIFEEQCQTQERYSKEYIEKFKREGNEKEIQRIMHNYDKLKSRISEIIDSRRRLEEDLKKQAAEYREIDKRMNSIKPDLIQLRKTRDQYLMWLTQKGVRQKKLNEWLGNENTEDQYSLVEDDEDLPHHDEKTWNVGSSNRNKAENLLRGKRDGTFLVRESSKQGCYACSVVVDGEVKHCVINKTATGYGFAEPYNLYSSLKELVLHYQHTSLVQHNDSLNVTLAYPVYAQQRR
Chain of PI3Kγ (P48736 whole entry, species assumed, canonical isoform): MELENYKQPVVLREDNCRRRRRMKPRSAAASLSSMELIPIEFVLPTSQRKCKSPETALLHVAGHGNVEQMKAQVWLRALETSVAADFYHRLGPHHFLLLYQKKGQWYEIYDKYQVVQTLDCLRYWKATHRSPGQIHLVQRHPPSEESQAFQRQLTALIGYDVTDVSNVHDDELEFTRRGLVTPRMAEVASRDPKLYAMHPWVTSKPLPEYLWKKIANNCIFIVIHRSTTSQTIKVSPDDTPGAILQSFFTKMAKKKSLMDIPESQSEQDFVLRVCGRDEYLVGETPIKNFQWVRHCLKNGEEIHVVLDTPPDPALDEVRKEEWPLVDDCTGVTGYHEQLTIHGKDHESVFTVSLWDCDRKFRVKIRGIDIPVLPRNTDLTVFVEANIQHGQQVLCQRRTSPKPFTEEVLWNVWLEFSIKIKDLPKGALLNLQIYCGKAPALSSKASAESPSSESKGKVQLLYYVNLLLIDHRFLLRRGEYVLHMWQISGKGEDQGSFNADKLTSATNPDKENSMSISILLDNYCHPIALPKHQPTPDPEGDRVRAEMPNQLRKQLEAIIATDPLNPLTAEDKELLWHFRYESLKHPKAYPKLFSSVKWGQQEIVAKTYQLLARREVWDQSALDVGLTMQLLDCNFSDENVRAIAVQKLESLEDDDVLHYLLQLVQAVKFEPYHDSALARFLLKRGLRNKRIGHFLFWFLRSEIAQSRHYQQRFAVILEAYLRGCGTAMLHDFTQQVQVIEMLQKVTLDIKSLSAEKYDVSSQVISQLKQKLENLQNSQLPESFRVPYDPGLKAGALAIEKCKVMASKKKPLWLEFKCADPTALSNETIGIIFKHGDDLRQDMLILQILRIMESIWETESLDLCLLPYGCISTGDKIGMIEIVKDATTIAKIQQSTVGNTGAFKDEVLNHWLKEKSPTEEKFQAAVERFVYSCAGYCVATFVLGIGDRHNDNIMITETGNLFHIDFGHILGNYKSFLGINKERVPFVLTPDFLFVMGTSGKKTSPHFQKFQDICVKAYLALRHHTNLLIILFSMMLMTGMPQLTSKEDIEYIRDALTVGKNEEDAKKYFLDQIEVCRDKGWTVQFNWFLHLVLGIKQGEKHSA
Chain of PI3Kβ (P42338 whole entry, species assumed, canonical isoform): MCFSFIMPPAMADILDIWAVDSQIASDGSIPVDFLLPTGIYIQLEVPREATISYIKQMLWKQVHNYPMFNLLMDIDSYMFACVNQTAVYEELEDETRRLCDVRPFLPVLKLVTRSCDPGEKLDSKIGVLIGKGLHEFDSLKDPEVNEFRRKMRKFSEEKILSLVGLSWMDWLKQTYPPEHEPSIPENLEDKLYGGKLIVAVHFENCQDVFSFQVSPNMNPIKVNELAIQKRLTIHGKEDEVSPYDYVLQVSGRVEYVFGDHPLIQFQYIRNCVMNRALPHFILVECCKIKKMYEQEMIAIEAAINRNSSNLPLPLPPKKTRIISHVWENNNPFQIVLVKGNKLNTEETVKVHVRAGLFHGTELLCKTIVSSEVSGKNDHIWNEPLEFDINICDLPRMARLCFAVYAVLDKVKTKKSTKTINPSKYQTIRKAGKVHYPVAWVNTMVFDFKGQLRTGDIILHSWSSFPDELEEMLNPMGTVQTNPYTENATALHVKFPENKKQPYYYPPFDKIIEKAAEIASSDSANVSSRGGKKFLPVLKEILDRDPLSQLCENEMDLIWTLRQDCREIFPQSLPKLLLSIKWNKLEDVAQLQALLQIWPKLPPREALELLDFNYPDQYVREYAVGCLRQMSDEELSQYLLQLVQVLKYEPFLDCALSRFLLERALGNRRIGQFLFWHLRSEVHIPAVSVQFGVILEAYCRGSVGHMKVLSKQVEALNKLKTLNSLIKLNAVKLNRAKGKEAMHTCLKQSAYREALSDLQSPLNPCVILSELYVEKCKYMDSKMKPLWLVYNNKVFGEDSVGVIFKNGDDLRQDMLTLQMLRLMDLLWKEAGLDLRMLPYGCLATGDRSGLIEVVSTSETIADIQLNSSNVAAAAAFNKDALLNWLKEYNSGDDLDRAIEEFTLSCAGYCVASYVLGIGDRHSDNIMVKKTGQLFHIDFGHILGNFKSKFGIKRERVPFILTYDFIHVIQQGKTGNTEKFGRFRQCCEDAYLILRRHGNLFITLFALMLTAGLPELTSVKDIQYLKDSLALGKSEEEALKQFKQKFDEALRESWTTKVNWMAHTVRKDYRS
Chain of PI3Kβ (P27986 whole entry partner, species assumed, canonical isoform): as the sequence (P27986 whole entry partner, species assumed) above

Consider `Cc1csc2nc(C(C)Nc3nc(N)nc4[nH]cnc34)c(-c3cc(F)cc(F)c3)c(=O)n12` (single isomer, unassigned) [Example 23, 7-{1-[(2-amino-9H-purin-6-yl)amino]ethyl}-6-(3,5-difluorophenyl)-3-methyl-5H-[1,3]thiazolo[3,2-a]pyrimidin-5-one], for which the IC50 is less than 50 nM against PI3Kδ (p110δ/p85α) [1]; less than 50 nM in assay [2] (Homo sapiens, Pfeiffer); greater than 500 nM at PI3Kγ.
On to `Cc1cccc2nc(C(C)Nc3ncnc4[nH]cnc34)c(-c3cccc(F)c3)c(=O)n12` (single isomer, unassigned) [Example 71, 3-(3-Fluorophenyl)-6-methyl-2-[1-(9H-purin-6-ylamino)ethyl]-4H-pyrido[1,2-a]pyrimidin-4-one trifluoroacetic acid salt], for which the IC50 on PI3Kδ (p110δ/p85α) [1] was less than 50 nM; in assay [2] (trifluoroacetic acid salt) it was less than 50 nM; on PI3Kγ it was greater than 500 nM.
`Cc1csc2nc(C(C)Nc3ncnc4[nH]cnc34)c(-c3cccc(F)c3)c(=O)n12` (stereo not shown) [Example 10, 6-(3-fluorophenyl)-3-methyl-7-[1-(9H-purin-6-ylamino)ethyl]-5H-[1,3]thiazolo[3,2-a]pyrimidin-5-one]: the IC50 at PI3Kγ and against PI3Kβ was greater than 500 nM in each case.
As to `Cc1csc2nc(C(C)Nc3ncnc4[nH]cnc34)c(-c3cc(F)cc(F)c3)c(=O)n12` (stereo not shown) [Example 12, 6-(3,5-difluorophenyl)-3-methyl-7-[1-(9H-purin-6-ylamino)ethyl]-5H-[1,3]thiazolo[3,2-a]pyrimidin-5-one], the IC50 (on PI3Kδ (p110δ/p85α) [1]; in assay [3]; at PI3Kδ (p110δ/p85α) [4]) was less than 50 nM each time.
Turning to `Cc1csc2nc([C@H](C)Nc3ncnc4[nH]cnc34)c(-c3cccc(F)c3)c(=O)n12` [Example 15, (S)-7-(1-(9H-purin-6-ylamino)ethyl)-6-(3-fluorophenyl)-3-methyl-5H-thiazolo[3,2-a]pyrimidin-5-one], the IC50 at PI3Kγ and against PI3Kβ was greater than 500 nM in each case.

As a reminder, the IC50 is the concentration needed to halve the response being measured.

Values taken from patent US9975907B2, “Pyrimidinones as PI3K inhibitors” (Incyte Corporation, priority 2009, dated 2018).
